Data published in patent US8309558B2, “Compounds for the treatment of hepatitis C” (Bristol-Myers Squibb Company, priority 2008, dated 2012).

Columns and labels:
HCV replicon cells = assay: HCV replicon FRET / luciferase assay (96-well plates); assay type: cell-based; details: Hepatitis C virus, Table 1a; HCV replicon; read-out: EC50
Outline: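 HCV replicon cells (with or without Renilla luciferase reporter) were plated with titrated compounds at 37 °C. After Alamar blue toxicity reading, cells were lysed in reagent containing 20 μM EDANS/DABCYL NS3 protease FRET peptide and 150 mM NaCl, read kinetically at 340/490 nm, or assayed by Dual-Glo luciferase.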

[1] = target: T1, HCV NS5B RdRp genotype 1b (Hepatitis C virus genotype 1b, UniProt Q9WMX2); assay: Standard HCV NS5B RdRp enzyme assay; assay type: biochemical; details: Table 1a; HCV NS5B RdRp genotype 1b; read-out: IC50
T1 construct: The protein was expressed with an 18 amino acid C-terminal truncation to enhance the solubility; made in house; host or cells: E. coli BL21(DE3), pET21a vector
T1 sequence (Q9WMX2 2420-2992): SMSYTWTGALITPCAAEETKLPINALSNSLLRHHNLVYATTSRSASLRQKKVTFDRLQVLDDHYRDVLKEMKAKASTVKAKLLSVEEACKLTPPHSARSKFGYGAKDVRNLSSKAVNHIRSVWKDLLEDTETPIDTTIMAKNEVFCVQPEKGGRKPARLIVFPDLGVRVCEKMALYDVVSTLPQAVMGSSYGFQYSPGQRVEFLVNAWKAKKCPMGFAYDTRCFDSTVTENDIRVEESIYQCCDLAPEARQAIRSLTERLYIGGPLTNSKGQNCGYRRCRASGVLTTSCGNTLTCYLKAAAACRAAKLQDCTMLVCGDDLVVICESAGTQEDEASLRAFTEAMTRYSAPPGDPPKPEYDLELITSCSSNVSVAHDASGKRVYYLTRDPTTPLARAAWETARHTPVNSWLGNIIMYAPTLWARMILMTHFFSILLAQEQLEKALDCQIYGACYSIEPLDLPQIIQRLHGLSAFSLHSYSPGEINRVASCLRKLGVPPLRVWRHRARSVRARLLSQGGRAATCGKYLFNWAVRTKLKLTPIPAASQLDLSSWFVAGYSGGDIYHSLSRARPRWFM
Procedure: HCV NS5B RdRp cloning, expression, and purification. The cDNA encoding the NS5B protein of HCV, genotype 1b, was cloned into the pET21a expression vector. The protein was expressed with an 18 amino acid C-terminal truncation to enhance the solubility. The E. coli competent cell line BL21(DE3) was used for expression of the protein. Cultures were grown at 37° C. for ˜4 hours until the cultures reached an optical density of 2.0 at 600 nm. The cultures were cooled to 20° C. and induced with 1 mM IPTG. Fresh ampicillin was added to a final concentration of 50 μg/ml and the cells were grown overnight at 20° C.
Cell pellets (3 L) were lysed for purification to yield 15-24 mgs of purified NS5B. The lysis buffer consisted of 20 mM Tris-HCl, pH 7.4, 500 mM NaCl, 0.5% triton X-100, 1 mM DTT, 1 mM EDTA, 20% glycerol, 0.5 mg/ml lysozyme, 10 mM MgCl2, 15 ug/ml deoxyribonuclease I, and Complete TM protease inhibitor tablets (Roche). After addition of the lysis buffer, frozen cell pellets were resuspended using a tissue homogenizer. To reduce the viscosity of the sample, aliquots of the lysate were sonicated on ice using a microtip attached to a Branson sonicator. The sonicated lysate was centrifuged at 100,000×g for 1 hr at 4° C. and filtered through a 0.2 μm filter unit (Corning).
The protein was purified using three sequential chromatography steps: Heparin sepharose CL-6B, polyU sepharose 4B, and Hitrap SP sepharose (Pharmacia). The chromatography buffers were identical to the lysis buffer but contained no lysozyme, deoxyribonuclease I, MgC12 or protease inhibitor and the NaCl concentration of the buffer was adjusted according to the requirements for charging the protein onto the column. Each column was eluted with a NaCl gradient which varied in length from 5-50 column volumes depending on the column type. After the final chromatography step, the resulting purity of the enzyme is >90% based on SDS-PAGE analysis. The enzyme was aliquoted and stored at −80° C.
Standard HCV NS5B RdRp enzyme assay. HCV RdRp genotype 1b assays were run in a final volume of 60 μl in 96 well plates (Costar 3912). The assay buffer composed of 20 mM Hepes, pH 7.5, 2.5 mM KCl, 2.5 mM MgCl2, 1 mM DTT, 1.6 U RNAse inhibitor (Promega N2515), 0.1 mg/ml BSA (Promega R3961), and 2% glycerol. All compounds were serially diluted (3-fold) in DMSO and diluted further in water such that the final concentration of DMSO in the assay was 2%. HCV RdRp genotype 1b enzyme was used at a final concentration of 28 nM. A polyA template was used at 6 nM, and a biotinylated oligo-dT12 primer was used at 180 nM final concentration. Template was obtained commercially (Amersham 27-4110). Biotinylated primer was prepared by Sigma Genosys. 3H-UTP was used at 0.6 μCi (0.29 μM total UTP). Reactions were initiated by the addition of enzyme, incubated at 30° C. for 60 min, and stopped by adding 25 μl of 50 mM EDTA containing SPA beads (4 μg/μl, Amersham RPNQ 0007). Plates were read on a Packard Top Count NXT after >1 hr incubation at room temperature.
IC50 values for compounds were determined using seven different [I]. IC50 values were calculated from the inhibition using the formula y=A+((B−A)/(1+((C/x)^D))).

Compound | EC50 (HCV replicon cells) | IC50 [1]
CNC(=O)c1c(-c2ccc(F)cc2)oc2ccc(-c3cccc(C(=O)NC(C)(C)C)c3)cc12 | < 0.25 µM | < 0.25 µM
CNC(=O)c1c(-c2ccc(F)cc2)oc2ccc(-c3cccc(C(=O)N(C)C(C)(C)C)c3)cc12 | < 0.25 µM | < 0.25 µM
CNC(=O)c1c(-c2ccc(F)cc2)oc2ccc(-c3cccc(C(=O)Nc4cc(C)nn4C)c3)cc12 | < 0.25 µM | < 0.25 µM
CNC(=O)c1c(-c2ccc(F)cc2)oc2ccc(-c3cccc(C(=O)Nc4ccccc4-c4ccccc4)c3)cc12 | < 0.25 µM | 1 to 10 µM
CNC(=O)c1c(-c2ccc(F)cc2)oc2cc(N(CCO)S(C)(=O)=O)c(-c3cccc(C(=O)NC(C)(C)c4ccccc4)c3)cc12 | < 0.25 µM | < 0.25 µM
CNC(=O)c1c(-c2ccc(F)cc2)oc2ccc(-c3cccc(C(=O)NC(C)(C)C(=O)N(C)C)c3)cc12 | < 0.25 µM | < 0.25 µM
CNC(=O)c1c(-c2ccc(F)cc2)oc2cc(N)c(-c3cccc(C(=O)NC4(c5ccccc5)CC4)c3)cc12 | < 0.25 µM | < 0.25 µM
CNC(=O)c1c(-c2ccc(F)cc2)oc2ccc(-c3cccc(-c4nnc(C(C)C)o4)c3)cc12 | < 0.25 µM | < 0.25 µM
CNC(=O)c1c(-c2ccc(F)cc2)oc2ccc(-c3cc(C(=O)NCC(C)C)ccc3F)cc12 | < 0.25 µM | < 0.25 µM
CNC(=O)c1c(-c2ccc(F)cc2)oc2ccc(-c3cccc(C(=O)NC(C)(C)C(=O)NC)c3)cc12 | < 0.25 µM | < 0.25 µM
CNC(=O)c1c(-c2ccc(F)cc2)oc2ccc(-c3cccc(C(=O)NC(C)(C)C(=O)Nc4nccs4)c3)cc12 | < 0.25 µM | < 0.25 µM
CNC(=O)c1c(-c2ccc(F)cc2)oc2ccc(-c3cccc(C(=O)NC(C)(C)C(=O)NCC(F)F)c3)cc12 | < 0.25 µM | < 0.25 µM
CNC(=O)c1c(-c2ccc(F)cc2)oc2ccc(-c3cc(C(=O)CCC(C)C)ccc3OCCN(C)C)cc12 | < 0.25 µM | < 0.25 µM
CNC(=O)c1c(-c2ccc(F)cc2)oc2ccc(-c3cn[nH]c3)cc12 | 0.25 to 1 µM | > 10 µM
CNC(=O)c1c(-c2ccc(F)cc2)oc2ccc(-c3ccc(OCC(C)C)cc3)cc12 | > 0.4 µM | > 10 µM
CNC(=O)c1c(-c2ccc(F)cc2)oc2ccc(-c3cc(OC)ncc3F)cc12 | > 0.62 µM | > 10 µM
CNC(=O)c1c(-c2ccc(F)cc2)oc2ccc(-c3ccc(NC(=O)OC(C)(C)C)cc3)cc12 | > 0.4 µM | > 10 µM
CNC(=O)c1c(-c2ccc(F)cc2)oc2ccc(-c3ccc(CO)cc3)cc12 | 0.25 to 1 µM | > 10 µM
CNC(=O)c1cccc(-c2ccc3oc(-c4ccc(F)cc4)c(C(=O)NC)c3c2)c1 | 0.25 to 1 µM | 1 to 10 µM
CCNC(=O)c1cccc(-c2ccc3oc(-c4ccc(F)cc4)c(C(=O)NC)c3c2)c1 | 0.25 to 1 µM | 0.25 to 1 µM
CCCCNC(=O)c1cccc(-c2ccc3oc(-c4ccc(F)cc4)c(C(=O)NC)c3c2)c1 | < 0.25 µM | < 0.25 µM
CNC(=O)c1c(-c2ccc(F)cc2)oc2ccc(-c3cccc(C(=O)NCCC#N)c3)cc12 | 0.25 to 1 µM | 0.25 to 1 µM
CNC(=O)c1c(-c2ccc(F)cc2)oc2ccc(-c3cccc(C(=O)N(C)CC(C)C)c3)cc12 | 0.25 to 1 µM | < 0.25 µM
CNC(=O)c1c(-c2ccc(F)cc2)oc2ccc(-c3cccc(C(=O)Nc4ccnn4C)c3)cc12 | 0.25 to 1 µM | 0.25 to 1 µM
CNC(=O)c1c(-c2ccc(F)cc2)oc2ccc(-c3cccc(C(=O)NCc4cnc(C)cn4)c3)cc12 | 0.25 to 1 µM | 0.25 to 1 µM
CNC(=O)c1c(-c2ccc(F)cc2)oc2ccc(-c3cccc(C(=O)NCCc4cccs4)c3)cc12 | 0.25 to 1 µM | 0.25 to 1 µM
CCOCCNC(=O)c1cccc(-c2ccc3oc(-c4ccc(F)cc4)c(C(=O)NC)c3c2)c1 | 0.25 to 1 µM | < 0.25 µM
CNC(=O)c1c(-c2ccc(F)cc2)oc2ccc(-c3cccc(C(=O)NCC4CCOCC4)c3)cc12 | 0.25 to 1 µM | < 0.25 µM
